Measurements from patent US20260325654A1, “METHODS AND COMPOSITIONS FOR TARGETED PROTEIN DEGRADATION” (Ranok Therapeutics (Hangzhou) Co. Ltd., priority 2023, published 2026).

Columns and labels:
AGS = test: CellTiter-Glo Reagent cancer cell line proliferation assay, AGS; type: cell-based, human; conditions: KRAS(G12D) heterozygous
Source text: (§1) The following cancer cell lines were employed: • AsPC-1 human pancreatic adenocarcinoma, homozygous KRAS(G12D), (ATCC, #CRL-1682); A-427 human lung carcinoma, heterozygous KRAS(G12D), (ATCC, #HTB-53); AGS human gastric adenocarcinoma, heterozygous KRAS(G12D), (ATCC, #CRL-1739); GP2D human colon adenocarcinoma, heterozygous KRAS(G12D), (Sigma Aldrich, 95090714); SW1990 human pancreatic adenocarcinoma, homozygous KRAS(G12D), (ATCC, #CRL2172); LU65A human lung giant cell carcinoma, heterozygous KRAS(G12C), (JCRB Cell Bank, #JCRB0054); NCIH727 human lung carcinoid, heterozygous KRAS(G12V), (ATCC, #CRL-5815); MKN1 human gastric adenosquamous carcinoma KRAS (wt), (JCRB Cell Bank, #JCRB0252). Cell lines were cultured according to ATCC, JCRB and Sigma Aldrich recommendations.
(§2) Cells were plated in 96-well tissue culture plates at 4,000 cells/well and incubated at 37° C./5% CO2 for 24 hr in 100 μl of media. 3-fold serial dilutions of each test compound were prepared ranging from 20 μM to 1.02 nM. Cells were then treated with test compounds at various concentrations with a final concentration of 0.5% DMSO/well, and then incubated at 37° C./5% CO2 for 24 hr. 100 μl of CellTiter-Glo® Reagent (Promega Corporation, Madison, WI) was added to each well and processed according manufacturer's protocol. Results were analyzed and IC50-values were calculated in GraphPad 7 software.

LU65A = test: CellTiter-Glo Reagent cancer cell line proliferation assay, LU65A; type: cell-based, human; conditions: KRAS(G12C) heterozygous
Source text: as §1, §2

GP2D = test: CellTiter-Glo Reagent cancer cell line proliferation assay, GP2D; type: cell-based; conditions: Homo sapiens, KRAS(G12D) heterozygous, 24 hr
Source text: as §1, §2

NCIH727 = test: CellTiter-Glo Reagent cancer cell line proliferation assay, NCIH727; type: cell-based, human; conditions: NCIH727, KRAS(G12V) heterozygous
Source text: as §1, §2

MKN1 = test: CellTiter-Glo Reagent cancer cell line proliferation assay, MKN1; type: cell-based; conditions: Homo sapiens, MKN-1; MKN1, KRAS (wt), 24 hr
Source text: as §1, §2

KRAS(G12D) = KRAS(G12D) (Homo sapiens, UniProt P01116, G12D); test: cell-based; type: cell-based; parameters: Cell lines SW1990 and GP2D that express KRAS(G12D); host or cells: SW1990; conditions: SW1990, read-out: WB data SW1990 DMax
KRAS(G12D), sequence (P01116 1-188 isoform P01116-2 G12D): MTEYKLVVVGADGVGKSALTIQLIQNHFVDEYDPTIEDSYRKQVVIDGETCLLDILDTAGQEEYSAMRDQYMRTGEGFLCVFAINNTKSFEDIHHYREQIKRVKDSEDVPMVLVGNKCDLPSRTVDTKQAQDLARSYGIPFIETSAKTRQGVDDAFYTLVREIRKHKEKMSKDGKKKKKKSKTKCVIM
Method: Cell lines were cultured according to ATCC, JCRB and Sigma Aldrich recommendations.
Cells were then washed with cold PBS, aspirated and cold RIPA buffer containing a protease/phosphatase inhibitor cocktail was added to lyse cells. After centrifugation, the total protein concentrations of cell lysates were determined using the BCA protein assay. Samples were normalized for equivalent protein concentrations, 5× SDS-PAGE loading buffer added and denatured at 100° C. for 10 min. 20 μl of each sample/well was loaded on a SDS-PAGE gel and electrophoresed for 20 min at 80 V, then 120 V for 1.5 hr. Gels were then electroblotted to nitrocellulose membranes using a wet-transfer method at 250 mA for 2.5 hr. Membranes were incubated with blocking buffer for 1 hr and washed 3 times with TBST for 5 min. Membranes were then incubated with anti-KRAS (Sigma-Aldrich, #SAB1404011) and anti-β-Actin monoclonal antibodies (Cell Signaling Technology, #3700) diluted in blocking buffer at 4° C. overnight per the manufacturer's recommendations. After washing 3 times, blots were incubated with appropriately labeled secondary antibodies for 1 hr at room temperature and washed again. Fluorescence imaging and quantitation was performed using a LI-COR Odyssey. Results was analyzed using GraphPad Prism 7 software. Compound concentrations that induced KRAS degradation (DC50 and DCmax) were calculated using GraphPad Prism 7 software.

Row | Compound | IC50 (AGS; Homo sapiens, 24 h) [nM] | IC50 (LU65A; Homo sapiens, 24 h) [nM] | IC50 (NCIH727; Homo sapiens, NCI-H727, 24 h) [nM] | also measured
1 | [2H]C([2H])([2H])Oc1nc(-c2cc(O)cc3ccc(F)c(C#C)c23)c(F)c2nc(OCC3(CN4CCN(CC5CCN(c6ccc(NC7CCC(=O)NC7=O)cc6)CC5)CC4)CC3)nc(N3CC4CCC(C3)N4C(=O)CC#N)c12 (stereo not drawn) [Compound 119] | 100 to 1000 | 100 to 1000 | 100 to 1000 | IC50 (GP2D): 100 to 1000 nM; IC50 (MKN1): 100 to 1000 nM
2 | C#Cc1c(F)ccc2cc(O)cc(-c3ncc4c(N5CC6CCC(C5)N6)nc(OCC5(CN6CCC(N7CCC(c8ccc9c(c8)CN(C8CCC(=O)NC8=O)C9=O)CC7)CC6)CC5)nc4c3F)c12 (stereo not drawn) [Compound 77] |  |  |  | Dmax (KRAS(G12D)): > 50%
3 | C#Cc1cccc2cc(O)cc(-c3ncc4c(N5CC6CCC(C5)N6)nc(OCC5(CN6CCN(CC7CCN(CC(=O)N[C@@H](C(=O)N8C[C@@H](O)C[C@@H]8C(=O)NCc8ccc(-c9scnc9C)cc8)C(C)(C)C)CC7)CC6)CC5)nc4c3F)c12 [Compound 52] |  |  |  | Dmax (KRAS(G12D)): > 50%
4 | C#Cc1c(F)ccc2cc(O)cc(-c3ncc4c(N5C[C@H]6CC[C@@H](C5)N6)nc(OCC5(CN6CCC(CN7CCC(c8ccc9c(c8)CN(C8CCC(=O)NC8=O)C9=O)C(F)(F)C7)CC6)CC5)nc4c3F)c12 (stereo partly drawn) [Compound 93, 3-(5-(1-((1-((1-(((4-((1R,5S)-3,8-diazabicyclo[3.2.1]octan-3-yl)-7-(8-ethynyl-7-fluoro-3-hydroxynaphthalen-1-yl)-8-fluoropyrido[4,3-d]pyrimidin-2-yl)oxy)methyl)cyclopropyl)methyl)piperidin-4-yl)methyl)-3,3-difluoropiperidin-4-yl)-1-oxoisoindolin-2-yl) piperidine-2,6-dione] | < 100 |  |  | IC50 (GP2D): < 100 nM
5 | C#Cc1c(F)ccc2cc(O)cc(-c3nc(OC)c4c(N5CCN(C(=O)C=C)[C@@H](CC#N)C5)nc(OCC5(CN6CCN(CC7CCN(c8ccc9c(c8)CN(C8CCC(=O)NC8=O)C9=O)CC7)CC6)CC5)nc4c3F)c12 (stereo partly drawn) [Compound 125] |  | < 100 |  | IC50 (MKN1): < 100 nM
6 | C#Cc1c(F)ccc2cc(O)cc(-c3nc(OC)c4c(N5CC6CCC(C5)N6)nc(OCC5(CN6CCN(C7CCN(c8ccc9c(c8)CN(C8CCC(=O)NC8=O)C9=O)CC7)CC6)CC5)nc4c3F)c12 (stereo not drawn) [Compound 82] |  |  |  | Dmax (KRAS(G12D)): > 50%
7 | [2H]C([2H])([2H])Oc1nc(-c2cc(O)cc3ccc(F)c(C#C)c23)c(F)c2nc(OCC3(CN4CCN(CC5CCN(c6ccc7c(c6)CN(C6CCC(=O)NC6=O)C7=O)CC5)CC4)CC3)nc(N3CC4CCC(C3)N4CC3CC3)c12 (stereo not drawn) [Compound 99] | > 1000 |  |  | IC50 (GP2D): 100 to 1000 nM
8 | C#Cc1c(F)ccc2cc(O)cc(-c3nc(OC)c4c(N5CCN(C(=O)CC#N)[C@@H](CC#N)C5)nc(OCC5(CN6CCN(CC7CCN(c8ccc9c(c8)CN(C8CCC(=O)NC8=O)C9=O)CC7)CC6)CC5)nc4c3F)c12 (stereo partly drawn) [Compound 104] | > 1000 | 100 to 1000 | > 1000 | IC50 (GP2D): > 1000 nM; IC50 (MKN1): 100 to 1000 nM
9 | C#Cc1c(F)ccc2cc(O)cc(-c3ncc4c(N5CC6CCC(C5)N6C(=O)/C(C#N)=C/C5CC5)nc(OCC5(CN6CCN(CC7CCN(c8ccc9c(c8)CN(C8CCC(=O)NC8=O)C9=O)CC7)CC6)CC5)nc4c3F)c12 (stereo not drawn) [Compound 124] | 100 to 1000 | < 100 | > 1000 | IC50 (GP2D): 100 to 1000 nM; IC50 (MKN1): > 1000 nM
10 | C#Cc1c(F)ccc2cc(O)cc(-c3ncc4c(N5CC6CCC(C5)N6C(=O)CC(C)C#N)nc(OCC5(CN6CC7CC7C6)CC5)nc4c3OCc3ccc(-c4cn([C@H](C(=O)N5C[C@H](O)C[C@H]5C(=O)N[C@@H](CO)c5ccc(-c6ccnn6CC)cc5)C(C)C)nn4)cc3)c12 (stereo partly drawn) [Compound 138] |  |  |  | IC50 (AGS; 24 hr): > 1000 nM; IC50 (LU65A; 24 hr): > 1000 nM; IC50 (NCIH727; 24 hr): > 1000 nM
11 | C#Cc1c(F)ccc2cc(O)cc(-c3nc(OC)c4c(N5CC6CCC(C5)N6C(=O)C(C#N)CC#N)nc(OCC5(CN6CCN(CC7CCN(c8ccc9c(c8)CN(C8CCC(=O)NC8=O)C9=O)CC7)CC6)CC5)nc4c3F)c12 (stereo not drawn) [Compound 126] | < 100 | < 100 | < 100 | 

Second part, led by results:

Row | IC50 (AGS; Homo sapiens, 24 h) [nM] | IC50 (LU65A; Homo sapiens, 24 h) [nM] | IC50 (NCIH727; Homo sapiens, NCI-H727, 24 h) [nM] | Compound | also measured
12 | < 100 | < 100 | < 100 | C#Cc1c(F)ccc2cc(O)cc(-c3ncc4c(N5CC6CCC(C5)N6C(=O)Cn5cc(COCCOCCOCCNc6ccc7c(c6)CN(C6CCC(=O)NC6=O)C7=O)nn5)nc(OCC56CCCN5C[C@@H](F)C6)nc4c3F)c12 (stereo partly drawn) [Compound 141] | 
13 | < 100 | < 100 | < 100 | C#Cc1c(F)ccc2cc(O)cc(-c3nc(OC)c4c(N5CC6CCC(C5)N6C(=O)CC(C)C#N)nc(OCC5(CNC6CCC(=O)NC6=O)CC5)nc4c3F)c12 (stereo not drawn) [Compound 145] | 
14 | < 100 | < 100 | < 100 | N#Cc1c(N)sc2c1C1(CCC2)CCCc2c(-c3nc(Cl)cc(OCC4(CN5CCN(CC6CCN(c7ccc8c(c7)CN(C7CCC(=O)NC7=O)C8=O)CC6)CC5)CC4)n3)noc21 (stereo not drawn) [Compound 156] | 
15 | < 100 | < 100 | < 100 | C#Cc1c(F)ccc2cc(O)cc(-c3ncc4c(N5CC6CCC(C5)N6C(=O)CC(C)C#N)nc(OCC5(CN6CCN(CC7CCN(c8ccc(NC9CCC(=O)NC9=O)cc8F)CC7)CC6)CC5)nc4c3F)c12 (stereo not drawn) [Compound 137] | 
16 | < 100 | < 100 | < 100 | C#Cc1c(F)ccc2cc(O)cc(-c3nc4c5c(nc(OCC6(CN7CCN(CC8CCN(c9ccc%10c(c9)CN(C9CCC(=O)NC9=O)C%10=O)CC8)CC7)CC6)nc5c3F)N(CC(F)F)[C@@H](C)CO4)c12 (stereo partly drawn) [Compound 158] | 
17 | < 100 | < 100 | < 100 | C#Cc1c(F)ccc2cc(O)cc(-c3nc(OC)c4c(N5CCCOC6CC65)nc(OCC5(CN6CCN(CC7CCN(c8ccc9c(c8)CN(C8CCC(=O)NC8=O)C9=O)CC7)CC6)CC5)nc4c3F)c12 (stereo not drawn) [Compound 157] | 
18 | < 100 | < 100 | < 100 | C#Cc1c(F)ccc2cc(O)cc(-c3ncc4c(N5CCCOCC5)nc(OCC5(CN6CCN(CC7CCN(c8ccc9c(c8)CN(C8CCC(=O)NC8=O)C9=O)CC7)CC6)CC5)nc4c3F)c12 (stereo not drawn) [Compound 134] | 
19 | < 100 | < 100 | < 100 | C#Cc1c(F)ccc2cc(O)cc(-c3nc(OC)c4c(N5CC6CCC(C5)N6C(=O)CC(C)C#N)nc(OCC5(CN6CCC(CN7CCC(c8ccc9c(c8)CN(C8CCC(=O)NC8=O)C9=O)C(F)(F)C7)CC6)CC5)nc4c3F)c12 (stereo not drawn) [Compound 161] | 
20 | < 100 | < 100 | < 100 | C#Cc1c(F)ccc2cc(O)cc(-c3ncc4c(N5CC6CCC(C5)N6C(=O)CC(C)C#N)nc(OCC5(CN(C)Cc6ccc(C7CN(c8ccc9c(c8)CN(C8CCC(=O)NC8=O)C9=O)C7)cc6)CC5)nc4c3F)c12 (stereo not drawn) [Compound 132] | 
